Source: US12037419B2 (The Feinstein Institutes for Medical Research, priority 2016, dated 2024)

Columns and labels:
[1] = system: human monocytes; assay: HMGB1-induced monocyte activation (cytokine mRNA by q-PCR, protein by ELISA/MSD); type: cell-based
Protocol: (§1) Monocyte isolation and stimulation: Human PBMCs were obtained following institutional guidelines of the Feinstein Institute for Medical Research (Feinstein) and isolated from blood of healthy donors by density centrifugation (New York Blood Bank). Monocytes were negatively enriched using a human monocyte enrichment kit (Stem Cell Technology). Purity of monocytes (≥90% CD11b+CD14+LAIR-1+) was determined by flow cytometry. […] Splenic murine monocytes from wild type mice, RAGE deficient or LAIR-1 conditional knockout mice were isolated using EasySep mouse monocyte enrichment kit (Stem Cell Technology). C57BL/6 mice, Lysozyme2-Cre transgenic mice were purchased from Jackson Laboratory. Myeloid specific LAIR-1 conditional knockout mice (Lysozyme2-Cre×LAIR fl/fl) were bred and maintained in our facility (Feinstein) under specific pathogen-free conditions. RAGE deficient mice (Department of Medicine, Karolinska Institute Stockholm, Sweden) were maintained at Feinstein. Eight-to ten weeks old male mice were used for experiments. All animal procedures were approved by the Feinstein Institutional Animal Care and Use Committee.
RT-PCR analysis and primers: Total RNA was extracted from cells (1-2×10^6 cells per sample) with an RNeasy kit (Qiagen, Venlo, Limburg, Netherlands) and cDNA was generated using an iScript cDNA synthesis kit (Bio-Rad laboratories). Real Time-PCR was performed on a Light Cycler 480 II (Roche) using Light Cycler 480 master mix with primers (Applied Biosystems) for IFNα1 (Hs00256882), IFNα7 (mm02525960), MX1 (Hs00182073, mm01217998), IL-6 (Hs00985639, mm99999064), TNFα (Hs00174128, mm00443258), IL-12a (Hs00168405), Mer (Hs01031973), PDL-1 (Hs01125301), IL-10 (Hs00961622), CD163 (Hs00174705), HPRT1 (Hs99999909, mm01545399) and Polr2a (Hs00172187). The genes of interest were normalized to the expression of house keeping genes and were compared to a control condition with no treatment. The relative induction was calculated by 2-ΔΔCt.
Transfection: For RNA interference assays, human monocytes were transfected using an Amaxa Nucleofector kit (Lonza) with a greater than 40% transfection efficiency. siRNAs were obtained from Qiagen. The target sequence of human LAIR1-11 is […] (SEQ ID NO:9). The efficiency of knockdown was determined by flow cytometry and q-PCR.
(§2) Cytokine analysis: Cytokine levels were measured using a Human Proinflammatory 7-plex assay following the manufacturer's protocols (Meso Scale Discovery (MSD). MSD plates were analyzed on the MS2400 imager (MSD). All standards and samples were run in duplicates.

[2] = system: human monocytes; assay: Internalization of FITC-labeled HMGB1 or CpG by monocytes (immunofluorescence microscopy); type: cell-based
Protocol: Immunofluorescence Microscopy: In situ proximal ligation assay was performed according to manufacturer's protocol (Duolink, Sigma). Following stimulation, human monocytes were washed three times with ice-cold PBS and were fixed with 4% (wt/vol) PFA for 1 hour at room temperature, seeded (2×10^5 cells) on slides using cytospin (Shandon), permeablized with chilled MeOH for 4 min and with PBS/0.1% (vol/vol) Triton X-100 and blocked for 1 h at room temperature. Cells were then incubated overnight with a primary antibody pair directed to rabbit anti-RAGE (ab3611, Abcam) and to mouse anti-LAIR-1 (BD Bioscience), respectively. The cells were incubated with corresponding PLA probes conjugated to oligonucleotides (mouse MINUS and rabbit PLUS), then followed by ligation and rolling circle amplification in close proximity. Images were acquired using AxioVision software and a confocal microscope (Olympus). Quantification was performed using Zen2 (Zeiss). […] Cells were washed three times with cold-PBS and fixed with 4% PFA and stained with PECy5-anti-human CD14 antibody (BD biosciences) or propidium iodide (PI). […] PI or DAPI was used for nuclear staining. […] After washing, cells were stained with Alexa Fluor 594 anti-rabbit IgG (Life Technologies), and mounted DAPI-containing medium. […]

[3] = biological target: T1, RAGE and LAIR-1 (Homo sapiens, UniProt Q15109+Q6GTX8); assay: Proximity ligation assay (PLA) for colocalization of RAGE and LAIR-1 on monocytes; type: cell-based
T1 construct: endogenous in cells; host or cells: primary human monocytes from blood of healthy donors
Protocol: Cells were then incubated overnight with a primary antibody pair directed to rabbit anti-RAGE (ab3611, Abcam) and to mouse anti-LAIR-1 (BD Bioscience), respectively. The cells were incubated with corresponding PLA probes conjugated to oligonucleotides (mouse MINUS and rabbit PLUS), then followed by ligation and rolling circle amplification in close proximity. Images were acquired using an AxioImage Z1 (Zeiss) apotome enabled (Zeiss) Fluorescent-intensity analysis of the images was performed using Zen2 (Zeiss).
Immunofluorescence Microscopy: In situ proximal ligation assay was performed according to manufacturer's protocol (Duolink, Sigma). Following stimulation, human monocytes were washed three times with ice-cold PBS and were fixed with 4% (wt/vol) PFA for 1 hour at room temperature, seeded (2×10^5 cells) on slides using cytospin (Shandon), permeablized with chilled MeOH for 4 min and with PBS/0.1% (vol/vol) Triton X-100 and blocked for 1 h at room temperature. Cells were then incubated overnight with a primary antibody pair directed to rabbit anti-RAGE (ab3611, Abcam) and to mouse anti-LAIR-1 (BD Bioscience), respectively. The cells were incubated with corresponding PLA probes conjugated to oligonucleotides (mouse MINUS and rabbit PLUS), then followed by ligation and rolling circle amplification in close proximity. […] Quantification was performed using Zen2 (Zeiss). […]

[4] = system: RAGE, LAIR-1, SHP-1, NF-κB signaling pathway; assay: Immunoprecipitation, Western blot, phospho-immunoreceptor array and p65 nuclear translocation in monocytes; type: cell-based, human
Protocol: Immunofluorescence Microscopy: In situ proximal ligation assay was performed according to manufacturer's protocol (Duolink, Sigma). Following stimulation, human monocytes were washed three times with ice-cold PBS and were fixed with 4% (wt/vol) PFA for 1 hour at room temperature, seeded (2×10^5 cells) on slides using cytospin (Shandon), permeablized with chilled MeOH for 4 min and with PBS/0.1% (vol/vol) Triton X-100 and blocked for 1 h at room temperature. Cells were then incubated overnight with a primary antibody pair directed to rabbit anti-RAGE (ab3611, Abcam) and to mouse anti-LAIR-1 (BD Bioscience), respectively. The cells were incubated with corresponding PLA probes conjugated to oligonucleotides (mouse MINUS and rabbit PLUS), then followed by ligation and rolling circle amplification in close proximity. Images were acquired using AxioVision software and a confocal microscope (Olympus). Quantification was performed using Zen2 (Zeiss). […] Cells were washed three times with cold-PBS and fixed with 4% PFA and stained with PECy5-anti-human CD14 antibody (BD biosciences) or propidium iodide (PI). […] PI or DAPI was used for nuclear staining. […] After washing, cells were stained with Alexa Fluor 594 anti-rabbit IgG (Life Technologies), and mounted DAPI-containing medium. Images were acquired using an AxioImage Z1 (Zeiss) apotome enabled (Zeiss) Fluorescent-intensity analysis of the images was performed using Zen2 (Zeiss).
Immunoprecipitation and Western blot. Total protein extracts were prepared as described (22). Monocytes (2-5×10^6 cells/ml) were washed in ice-cold PBS and lysed in 1×RIPA buffer containing complete protease inhibitor mixture (Roche) and phosphatase inhibitor (Pierce) for 1 h on ice. For immunoprecipitation, anti-LAIR-1 antibody (BD Bioscience) or anti-RAGE antibody (Abcam) was incubated with the lysate overnight at 4° C. prior to being incubated with protein G-dynabeads (Life Technologies). Proteins were then separated by SDS-PAGE, transferred to nitrocellulose or PVDF membranes, and immunoblotted with appropriate antibodies. Bands were detected using the ECL reagent (Thermo Scientific) or using the Odyssey Infrared Imaging system (LI-COR) to detect secondary antibodies conjugated with Infrared 680 or 800.
Phospho-immunoreceptor array: Tyrosine phosphorylated LAIR-1 was determined by human phosphoimmunoreceptor array (Proteome Profiler Array; R&D systems) according to the manufacturer's protocol and as described (22). Phosphorylation levels of individual analytes were determined by average pixel density of duplicate spots; values were obtained after subtraction of background and were normalized to positive control spots.

[5] = system: human monocytes; assay: Induction of anti-inflammatory molecules / M2-like phenotype (Mer, PDL-1, IL-10, CD163) in monocytes; type: cell-based
Protocol: as §1
RT-PCR analysis and primers: Total RNA was extracted from cells (1-2×10^6 cells per sample) with an RNeasy kit (Qiagen, Venlo, Limburg, Netherlands) and cDNA was generated using an iScript cDNA synthesis kit (Bio-Rad laboratories). […] The relative induction was calculated by 2-ΔΔCt.
as §2
Flow cytometry: Cells were suspended in staining buffer containing 2% BSA and incubated with Fc block (Miltenyi Biotec) for 15 min on ice. […] Events were acquired using either an LSRII or Fortessa cell analyzer (BD Biosciences), and data were analyzed using FlowJo (Tree star).

[6] = C1q 25 μg/ml, HMGB1 3 μg/ml, 6 h

T1 sequence (Q15109 23-404): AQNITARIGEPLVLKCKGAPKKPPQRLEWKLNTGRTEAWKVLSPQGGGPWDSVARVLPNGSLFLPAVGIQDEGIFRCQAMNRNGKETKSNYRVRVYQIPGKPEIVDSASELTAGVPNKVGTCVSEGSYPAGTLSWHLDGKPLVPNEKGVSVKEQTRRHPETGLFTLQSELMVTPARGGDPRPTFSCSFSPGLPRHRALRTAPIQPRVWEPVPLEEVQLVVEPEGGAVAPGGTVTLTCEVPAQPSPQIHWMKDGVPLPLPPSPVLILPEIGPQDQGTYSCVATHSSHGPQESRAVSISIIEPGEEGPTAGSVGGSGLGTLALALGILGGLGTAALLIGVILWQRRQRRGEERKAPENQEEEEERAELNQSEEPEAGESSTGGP
T1 sequence (Q6GTX8 22-287): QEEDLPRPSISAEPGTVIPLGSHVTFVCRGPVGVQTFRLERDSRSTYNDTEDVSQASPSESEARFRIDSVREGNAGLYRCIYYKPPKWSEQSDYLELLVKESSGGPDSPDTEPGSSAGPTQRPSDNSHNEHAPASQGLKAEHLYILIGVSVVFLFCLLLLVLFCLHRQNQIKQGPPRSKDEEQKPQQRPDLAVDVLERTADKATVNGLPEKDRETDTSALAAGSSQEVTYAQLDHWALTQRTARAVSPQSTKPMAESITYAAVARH

## C1q: C1q purified from pooled normal human sera, obtained from Complement Technology
[1]; [6]
  HMGB1-induced IFN, IL-6 and TNFα in adherent cell fraction of PBMCs: inhibited this HMGB1-mediated activation
  HMGB1-mediated cytokine induction in monocytes treated with LAIR-1-specific siRNA: no effect
[1]; C1q 25 μg/ml, LAIR-2 20 μg/ml, HMGB1 3 μg/ml, 6 h
  HMGB1-induced monocyte activation in the presence of soluble decoy receptor LAIR-2: failed to inhibit monocyte activation
[1]; C1q alone, serum free medium
  transcription of cytokine genes in the absence of HMGB1: did not alter transcription
[1]; C1q ˜25-50 μg/ml
  monocyte activation by HMGB1, C1q levels commonly present in SLE patients: less inhibitory
[1]; HMGB1 3 μg/ml, various C1q concentrations, serum free medium, 6 h mRNA, 24 h protein
  HMGB1-mediated cytokine transcription and protein induction: counteracted the HMGB1-mediated cytokine transcription and protein induction in a dose-dependent manner
[1]; HMGB1 10 μg ml-1
  inhibitory effect of C1q at increased HMGB1 level: abrogated the inhibitory effect of C1q
[1]; physiologic C1q levels
  monocyte activation by HMGB1, physiologic levels of C1q: effectively blocked monocyte activation
[2]; 15 min
  internalization of FITC-labeled CpG oligonucleotides: significantly reduced cellular internalization
[2]; FITC-HMGB1 3 μg/ml, C1q 25 μg ml-1, 15 min, 37° C.
  cytosolic FITC-HMGB1 (internalization): significantly decreased
[3]; C1q with or without HMGB1
  RAGE-LAIR-1 colocalization (PLA fluorescence): only detected in the presence of C1q
[3]; data not shown
  RAGE-LAIR-1 cross-linking with C1q co-incubated with LAIR-2: negated the cross-linking of RAGE and LAIR-1
[4]
  phosphorylation of LAIR-1: induces phosphorylation of LAIR-1
[4]; P-IKKα, p65, 1 h
  HMGB1-induced activation and nuclear translocation of NF-κB: inhibited the downstream activation and nuclear translocation of NF-κB
[4]; both HMGB1 and C1q present
  recruitment of SHP-1 to LAIR-1: more SHP-1 is recruited to LAIR-1
[4]; in the presence of C1q
  HMGB1-induced phosphorylation of RAGE: diminished
[5]; C1q 10, 25, 50 or 75 μg/ml with HMGB1, 24 h
  potency of physiologic C1q levels versus SLE levels (25-50 μg/ml) for Mer, PDL-1, IL-10, CD163 mRNA: more potent
[5]; together with HMGB1 3 μg/ml, C1q 25 μg/ml or C1q tail 53 μg/ml, 24 h
  transcription and protein expression of anti-inflammatory factors (Mer, PDL-1, IL-10, CD163): induced the transcription and protein expression of a variety of anti-inflammatory factors
